Assay results published in patent publication US6914045B2, “Glycopeptide antibiotics” (Wyeth Holdings Corporation, priority 2001, dated 2005).
Converted amounts (≈) assume the structure as drawn.

Columns and labels:
Assay in all cases: in vitro antibacterial evaluation, MIC by broth dilution
Format in all cases: cell-based
Streptococcus sp. = conditions: broth dilution, 18 hours at 35° C.
Procedure, shortened: (§1)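 MIC, the lowest antibiotic concentration preventing growth, was read across 64-0.06 μg/mL with 5×10^5 CFU/mL inoculum. Method followed NCCLS M7-A2 broth dilution using Mueller-Hinton II; Gram-positive strains covered recent methicillin-, penicillin- and/or vancomycin-resistant clinical isolates.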

Escherichia coli = conditions: 18 hours at 35° C.
Procedure, shortened: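 Inoculum 5×10^5 CFU/mL; concentrations 64 to 0.06 μg/mL; MIC defined as lowest inhibitory level. Conducted by broth dilution under NCCLS guidelines.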

Staphylococcus sp. = conditions: broth dilution, 18 hours at 35° C.
Procedure, shortened: as §1

Enterococcus sp. = conditions: broth dilution, 18 hours at 35° C.
Procedure, shortened: as §1

**Q.** `CC(C)CC(=O)OC1C(O)C(CO)OC(OC2C(CO)OC(Oc3ccc(CC4NC(=O)C(C(C)c5cccc(F)c5)NC(=O)CNC(=O)C(CO)NC(=O)C(C(O)C5CNC(=N)N5C5OC(CO)C(O)C(O)C5O)NC(=O)C(C(O)C5CNC(=N)N5)NC4=O)cc3)C(O)C2O)C1O` (stereo not drawn) [Example 264b, Cyclo[glycyl-3-fluoro-β-methylphenylalanyl-O-[4-O-[3-O-(3-methylbutanoyl)hexopyranosyl]-hexopyranosyl]tyrosyl-3-(2-iminoimidazolidin-4-yl)seryl-3-(3-hexopyranosyl-2-iminoimidazolidin-4-yl)serylseryl]] was tested. Which “MIC Streptococcus agalactiae (GC 4564)” value (Streptococcus sp.; strain GC 4564) did it give?
**A.** 4 µg/mL (≈ 2.86 µM)

**Q.** What about the “MIC Streptococcus pyogenes (ID-3187)” value (Streptococcus sp.; strain ID-3187) of the same molecule?
**A.** 4 µg/mL (≈ 2.86 µM)

**Q.** And the “MIC Escherichia coli (ATCC 25922)” value (Escherichia coli; Escherichia coli (ATCC 25922))?
**A.** 64 µg/mL (≈ 45.8 µM)

**Q.** What about the “MIC Escherichia coli (GC 4559)” value (Escherichia coli; Escherichia coli (GC 4559)) of the same molecule?
**A.** >64 µg/mL

**Q.** What about the “MIC Escherichia coli (GC 4560)” value (Escherichia coli; Escherichia coli (GC 4560)) of the same molecule?
**A.** 4 µg/mL (≈ 2.86 µM)

**Q.** And the “MIC Coagulase Negative Staphylococcus (GC 4547)” value (Staphylococcus sp.)?
**A.** 4 µg/mL (≈ 2.86 µM)

**Q.** And the “MIC Coagulase Negative Staphylococcus (GC 4548)” value (Staphylococcus sp.)?
**A.** 4 µg/mL (≈ 2.86 µM)

**Q.** What about the “MIC Coagulase Negative Staphylococcus (GC 4549)” value (Staphylococcus sp.) of the same molecule?
**A.** 4 µg/mL (≈ 2.86 µM)

**Q.** What about the “MIC Coagulase Negative Staphylococcus (GC 4551)” value (Staphylococcus sp.) of the same molecule?
**A.** 8 µg/mL (≈ 5.72 µM)

**Q.** And the “MIC Staphylococcus aureus (ATCC 29213)” value (Staphylococcus sp.)?
**A.** 8 µg/mL (≈ 5.72 µM)

**Q.** What about the “MIC Staphylococcus aureus (GC 1131)” value (Staphylococcus sp.) of the same molecule?
**A.** 8 µg/mL (≈ 5.72 µM)

**Q.** And the “MIC Staphylococcus aureus (GC 4541)” value (Staphylococcus sp.)?
**A.** 8 µg/mL (≈ 5.72 µM)

**Q.** What about the “MIC Staphylococcus aureus (GC 4542)” value (Staphylococcus sp.) of the same molecule?
**A.** 8 µg/mL (≈ 5.72 µM)

**Q.** And the “MIC Staphylococcus aureus (GC 4544)” value (Staphylococcus sp.)?
**A.** 8 µg/mL (≈ 5.72 µM)

**Q.** What about the “MIC Staphylococcus aureus (GC 4545)” value (Staphylococcus sp.) of the same molecule?
**A.** 4 µg/mL (≈ 2.86 µM)

**Q.** What about the “MIC Staphylococcus aureus-SMITH (GC 4543)” value (Staphylococcus sp.) of the same molecule?
**A.** 8 µg/mL (≈ 5.72 µM)

**Q.** And the “MIC Staphylococcus haemolyticus (GC 4546)” value (Staphylococcus sp.)?
**A.** 4 µg/mL (≈ 2.86 µM)

**Q.** And the “MIC Staphylococcus aureus (ATCC 29213)” value (Staphylococcus sp.; strain ATCC 29213)?
**A.** 8 µg/mL (≈ 5.72 µM)

**Q.** And the “MIC Staphylococcus aureus (GC 1131)” value (Staphylococcus sp.; strain GC 1131)?
**A.** 8 µg/mL (≈ 5.72 µM)

**Q.** And the “MIC Staphylococcus aureus (GC 4541)” value (Staphylococcus sp.; strain GC 4541)?
**A.** 8 µg/mL (≈ 5.72 µM)

**Q.** What about the “MIC Staphylococcus aureus (GC 4542)” value (Staphylococcus sp.; strain GC 4542) of the same molecule?
**A.** 8 µg/mL (≈ 5.72 µM)

**Q.** What about the “MIC Staphylococcus aureus (GC 4544)” value (Staphylococcus sp.; strain GC 4544) of the same molecule?
**A.** 8 µg/mL (≈ 5.72 µM)

**Q.** What about the “MIC Staphylococcus aureus (GC 4545)” value (Staphylococcus sp.; strain GC 4545) of the same molecule?
**A.** 4 µg/mL (≈ 2.86 µM)

**Q.** What about the “MIC Staphylococcus haemolyticus (GC 4546)” value (Staphylococcus sp.; strain GC 4546) of the same molecule?
**A.** 4 µg/mL (≈ 2.86 µM)

**Q.** And the “MIC Coagulase Negative Staphylococcus (GC 4547)” value (Staphylococcus sp.; strain GC 4547)?
**A.** 4 µg/mL (≈ 2.86 µM)

**Q.** And the “MIC Coagulase Negative Staphylococcus (GC 4548)” value (Staphylococcus sp.; strain GC 4548)?
**A.** 4 µg/mL (≈ 2.86 µM)

**Q.** And the “MIC Coagulase Negative Staphylococcus (GC 4549)” value (Staphylococcus sp.; strain GC 4549)?
**A.** 4 µg/mL (≈ 2.86 µM)

**Q.** And the “MIC Coagulase Negative Staphylococcus (GC 4551)” value (Staphylococcus sp.; strain GC 4551)?
**A.** 8 µg/mL (≈ 5.72 µM)

**Q.** What about the “MIC Staphylococcus aureus-SMITH (GC 4543)” value (Staphylococcus sp.; strain SMITH GC 4543) of the same molecule?
**A.** 8 µg/mL (≈ 5.72 µM)

**Q.** What about the “MIC Enterococcus avium (GC 4558)” value (Enterococcus sp.; Enterococcus avium (GC 4558)) of the same molecule?
**A.** 64 µg/mL (≈ 45.8 µM)

**Q.** And the “MIC Enterococcus faecalis (ATCC 29212)” value (Enterococcus sp.; Enterococcus faecalis (ATCC 29212))?
**A.** 64 µg/mL (≈ 45.8 µM)

**Q.** And the “MIC Enterococcus faecalis (GC 4553)” value (Enterococcus sp.; Enterococcus faecalis (GC 4553))?
**A.** 64 µg/mL (≈ 45.8 µM)

**Q.** What about the “MIC Enterococcus faecalis (GC 4554)” value (Enterococcus sp.; Enterococcus faecalis (GC 4554)) of the same molecule?
**A.** 64 µg/mL (≈ 45.8 µM)

**Q.** What about the “MIC Enterococcus faecium (GC 2243)” value (Enterococcus sp.; Enterococcus faecium (GC 2243)) of the same molecule?
**A.** 64 µg/mL (≈ 45.8 µM)

**Q.** And the “MIC Enterococcus faecium (GC 4556)” value (Enterococcus sp.; Enterococcus faecium (GC 4556))?
**A.** 64 µg/mL (≈ 45.8 µM)

**Q.** What about the “MIC Enterococcus faecium (GC 4557)” value (Enterococcus sp.; Enterococcus faecium (GC 4557)) of the same molecule?
**A.** 8 µg/mL (≈ 5.72 µM)

**Q.** And the “MIC Enterococcus faecalis (ATCC 29212)” value (Enterococcus sp.; strain ATCC 29212)?
**A.** 64 µg/mL (≈ 45.8 µM)

**Q.** What about the “MIC Enterococcus faecalis (GC 2242)” value (Enterococcus sp.; strain GC 2242) of the same molecule?
**A.** 32 µg/mL (≈ 22.9 µM)

**Q.** And the “MIC Enterococcus faecium (GC 2243)” value (Enterococcus sp.; strain GC 2243)?
**A.** 64 µg/mL (≈ 45.8 µM)

**Q.** And the “MIC Enterococcus faecalis (GC 4552)” value (Enterococcus sp.; strain GC 4552)?
**A.** 64 µg/mL (≈ 45.8 µM)

**Q.** And the “MIC Enterococcus faecalis (GC 4553)” value (Enterococcus sp.; strain GC 4553)?
**A.** 64 µg/mL (≈ 45.8 µM)

**Q.** What about the “MIC Enterococcus faecalis (GC 4554)” value (Enterococcus sp.; strain GC 4554) of the same molecule?
**A.** 64 µg/mL (≈ 45.8 µM)

**Q.** And the “MIC Enterococcus faecium (GC 4556)” value (Enterococcus sp.; strain GC 4556)?
**A.** 64 µg/mL (≈ 45.8 µM)

**Q.** What about the “MIC Enterococcus faecium (GC 4557)” value (Enterococcus sp.; strain GC 4557) of the same molecule?
**A.** 8 µg/mL (≈ 5.72 µM)

**Q.** What about the “MIC Enterococcus avium (GC 4558)” value (Enterococcus sp.; strain GC 4558) of the same molecule?
**A.** 64 µg/mL (≈ 45.8 µM)
